Reference: ChEMBL document CHEMBL1144514, “The design, synthesis, and biological evaluation of novel substituted purines as HIV-1 Tat-TAR inhibitors” (Bioorg Med Chem, 2007)

Experiments:
[1] = test system: 293T; assay: Inhibition of Tat-mediated transactivation in human 293T cells assessed as CAT expression at 30 uM; type: cell-based; conditions: Human immunodeficiency virus 1
[2] = test system: Simian immunodeficiency virus; assay: Inhibition of SIV-induced cytopathogenicity in CEM174 cells; type: functional, organism-based
[3] = Cytotoxicity against CEM174 cells; type: cell-based; conditions: human, read-out: TC50 (the source's name)
[4] = Selectivity index, ratio of EC50 for SIV infected CEM174 cells to TC50 for CEM174 cells; type: functional

Row | Compound | inhibition [1] [%] | EC50 [2] [µM] | CC50 [3] [µM] | Selectivity index [4]
1 | CCN(CC)c1nc(C)c2[nH]c(SCC(=O)NCCCNC(=N)N)[n+](CCCN(C)C)c2n1 | 48.8 | 3.2 | > 100 | >31.25
2 | CCN(CC)c1nc(C)c2[nH]c(SCC(=O)NCCNC(=N)N)nc2n1 | 57.1 | 4.2 | > 100 | >23.8
3 | CCN(CC)c1nc(C)c2[nH]c(SCC(=O)NCCCNC(=N)N)nc2n1 | 57.1 | 0.7 | > 100 | >142.9
4 | CCN(CC)c1nc(C)c2[nH]c(SCC(=O)NCCCN)nc2n1 | 58.4 | 0.5 | > 100 | >200
5 | CCN(CC)c1nc(C)c2[nH]c(SCC(=O)NCCN)[n+](CCCN(C)C)c2n1 | 57.7 | 3.4 | > 100 | >29.4
6 | Cc1cn([C@H]2C[C@H](N=[N+]=[N-])[C@@H](CO)O2)c(=O)[nH]c1=O [ZIDOVUDINE] |  | 0.0122 | > 100 | 
7 | CCN(CC)c1nc(C)c2[nH]c(SCC(=O)NCCN)nc2n1 | 65.7 | 2 | > 100 | >50
8 | CCN(CC)CC[n+]1c(SCC(=O)NCCN)[nH]c2c(C)nc(N(CC)CC)nc21 | 43.1 | 1.3 | 52.2 | 40.2
9 | CCN(CC)c1nc(C)c2[nH]c(SCC(=O)NCCNC(=N)N)[n+](CCCN(C)C)c2n1 | 50.2 | 7.2 | > 100 | >13.9
10 | CCN(CC)CC[n+]1c(SCC(=O)NCCNC(=N)N)[nH]c2c(C)nc(N(CC)CC)nc21 | 34.9 | 0.7 | > 100 | >142.9
11 | CCN(CC)c1nc(C)c2[nH]c(SCC(=O)NCCCN)[n+](CCCN(C)C)c2n1 | 48.7 | 0.2 | > 100 | >500
12 | CCN(CC)CC[n+]1c(SCC(=O)NCCCN)[nH]c2c(C)nc(N(CC)CC)nc21 | 43.3 | 1.4 | > 100 | >71.4
13 | CCN(CC)CC[n+]1c(SCC(=O)NCCCNC(=N)N)[nH]c2c(C)nc(N(CC)CC)nc21 | 36.2 | 4.7 | > 100 | >21.3
